biological target: T1, IDO1 (Homo sapiens, UniProt P14902); assay: Cell-based (HeLa) assay for measurement of IDO1 inhibition (kynurenine levels in supernatant after IFNγ induction); settings: HeLa cells, IFNγ-induced IDO1, kynurenine in supernatant, 48 hour incubation; geometric mean of a minimum of four determinations
T1 construct: HeLa cells were treated with a test compound in the presence of IFNγ, which induces IDO1 expression; host or cells: H1-HeLa cells, IDO1 induced with IFNγ
Procedure, shortened: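 HeLa cells, 1,250 per well, treated with compound (0.5% DMSO final) plus IFNγ to induce IDO1, for 48 h. Supernatant kynurenine measured by TCA hydrolysis at 60 °C, then p-dimethylaminobenzaldehyde, absorbance 480 nm. EC50 from a four-parameter fit normalized to −/+IFNγ controls; geometric mean of at least four runs.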

T1 sequence (P14902 whole entry): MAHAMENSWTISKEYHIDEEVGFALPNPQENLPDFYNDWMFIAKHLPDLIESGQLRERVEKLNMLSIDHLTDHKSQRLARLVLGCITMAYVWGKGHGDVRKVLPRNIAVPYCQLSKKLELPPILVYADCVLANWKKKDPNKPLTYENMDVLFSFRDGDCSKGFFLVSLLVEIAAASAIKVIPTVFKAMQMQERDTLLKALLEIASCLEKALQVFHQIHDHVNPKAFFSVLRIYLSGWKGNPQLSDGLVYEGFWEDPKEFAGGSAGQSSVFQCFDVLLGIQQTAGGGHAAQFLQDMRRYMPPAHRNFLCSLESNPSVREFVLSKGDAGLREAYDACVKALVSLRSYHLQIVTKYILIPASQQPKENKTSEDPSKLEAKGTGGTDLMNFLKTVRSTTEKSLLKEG

Going from `O/N=C(\Nc1ccc(F)c(Cl)c1)c1cc(F)c(F)c2nc(NCc3cccnc3)[nH]c12` [Example 343, N-(3-chloro-4-fluorophenyl)-4,5-difluoro-N′-hydroxy-2-((pyridin-3-ylmethyl)amino)-1H-benzo[d]imidazole-7-carboximidamide] to `O/N=C(\Nc1ccc(F)c(Cl)c1)c1cc(F)c(F)c2nc(NCc3ncccn3)[nH]c12` [Example 350, N-(3-chloro-4-fluorophenyl)-4,5-difluoro-N′-hydroxy-2-((pyrimidin-2-ylmethyl)amino)-1H-benzo[d]imidazole-7-carboximidamide], the EC50 rises from 3860 nM to 7030 nM (1.8-fold). The first is the more potent here.

`Cn1ccnc1CCNc1nc2c(F)c(F)cc(/C(=N/O)Nc3ccc(F)c(Cl)c3)c2[nH]1` [Example 344] and `Cn1ccnc1CNc1nc2c(F)c(F)cc(/C(=N/O)Nc3ccc(F)c(Cl)c3)c2[nH]1` [Example 349, N-(3-chloro-4-fluorophenyl)-4,5-difluoro-N′-hydroxy-2-(((1-methyl-1H-imidazol-2-yl)methyl)amino)-1H-benzo[d]imidazole-7-carboximidamide] are within 1.5-fold of each other in EC50: 3060 nM for the first, 2540 nM for the second.

`ON=C(Nc1ccc(F)c(Cl)c1)c1cc(F)c(F)c2nc(NCc3ncc[nH]3)[nH]c12` [Example 345, 2-(((1H-imidazol-2-yl)methyl)amino)-N-(3-chloro-4-fluorophenyl)-4,5-difluoro-N′-hydroxy-1H-benzo[d]imidazole-7-carboximidamide] and `Nc1ccccc1CNc1nc2c(F)c(F)cc(/C(=N/O)Nc3ccc(F)c(Cl)c3)c2[nH]1` [Example 347, 2-((2-aminobenzyl)amino)-N-(3-chloro-4-fluorophenyl)-4,5-difluoro-N′-hydroxy-1H-benzo[d]imidazole-7-carboximidamide] are within 1.5-fold of each other in EC50: 3840 nM for the first, 3270 nM for the second.

First: ON=C(Nc1ccc(F)c(Cl)c1)c1cc(F)c(F)c2nc(Cl)[nH]c12 [Example 346, 2-chloro-N-(3-chloro-4-fluorophenyl)-4,5-difluoro-N′-hydroxy-1H-benzo[d]imidazole-7-carboximidamide]
Second: CC(CN(C)C)Nc1nc2c(F)c(F)cc(/C(=N/O)Nc3ccc(F)c(Cl)c3)c2[nH]1 (centres unmarked) [Example 378, N-(3-chloro-4-fluorophenyl)-2-((1-(dimethylamino)propan-2-yl)amino)-4,5-difluoro-N′-hydroxy-1H-benzo[d]imidazole-7-carboximidamide]
The EC50 of the first is 6-fold higher: 8470 nM for the first, 1400 nM for the second. The second is the more potent here.

First: CN(C)c1ccccc1CNc1nc2c(F)c(F)cc(/C(=N/O)Nc3ccc(F)c(Cl)c3)c2[nH]1 [Example 348, N-(3-chloro-4-fluorophenyl)-2-((2-(dimethylamino)benzyl)amino)-4,5-difluoro-N′-hydroxy-1H-benzo[d]imidazole-7-carboximidamide]
Second: CC(CNc1nc2c(F)c(F)cc(/C(=N/O)Nc3ccc(F)c(Cl)c3)c2[nH]1)CN(C)C (centres unmarked) [Example 352, N-(3-chloro-4-fluorophenyl)-2-((3-(dimethylamino)-2-methylpropyl)amino)-4,5-difluoro-N′-hydroxy-1H-benzo[d]imidazole-7-carboximidamide]
The EC50 of the first is 7.8-fold higher: 3430 nM for the first, 437 nM for the second. The second is the more potent here.

First: CN(C)CC(C)(C)CNc1nc2c(F)c(F)cc(/C(=N/O)Nc3ccc(F)c(Cl)c3)c2[nH]1 [Example 351, N-(3-chloro-4-fluorophenyl)-2-((3-(dimethylamino)-2,2-dimethylpropyl)amino)-4,5-difluoro-N′-hydroxy-1H-benzo[d]imidazole-7-carboximidamide]
Second: CN(C)CC(C)(C)CNc1nc2c(F)ccc(/C(=N/O)Nc3ccc(F)c(Cl)c3)c2[nH]1 [Example 381, N-(3-chloro-4-fluorophenyl)-2-((3-(dimethylamino)-2,2-dimethylpropyl)amino)-4-fluoro-N′-hydroxy-1H-benzo[d]imidazole-7-carboximidamide]
The EC50 of the first is 7-fold lower: 432 nM for the first, 3030 nM for the second.

`CC(CCNc1nc2c(F)c(F)cc(/C(=N/O)Nc3ccc(F)c(Cl)c3)c2[nH]1)N(C)C` (centres unmarked) [Example 353, N-(3-chloro-4-fluorophenyl)-2-((3-(dimethylamino)butyl)amino)-4,5-difluoro-N′-hydroxy-1H-benzo[d]imidazole-7-carboximidamide] and `CN1CCCC1CCNc1nc2c(F)c(F)cc(/C(=N/O)Nc3ccc(F)c(Cl)c3)c2[nH]1` (centres unmarked) [Example 354, N-(3-chloro-4-fluorophenyl)-4,5-difluoro-N′-hydroxy-2-((2-(1-methylpyrrolidin-2-yl)ethyl)amino)-1H-benzo[d]imidazole-7-carboximidamide] are within 1.5-fold of each other in EC50: 1300 nM for the first, 1210 nM for the second.

Going from `CN1CCCCC1CCNc1nc2c(F)c(F)cc(/C(=N/O)Nc3ccc(F)c(Cl)c3)c2[nH]1` (centres unmarked) [Example 355, N-(3-chloro-4-fluorophenyl)-4,5-difluoro-N′-hydroxy-2-((2-(1-methylpiperidin-2-yl)ethyl)amino)-1H-benzo[d]imidazole-7-carboximidamide] to `CN1CCOC(CNc2nc3c(F)c(F)cc(/C(=N/O)Nc4ccc(F)c(Cl)c4)c3[nH]2)C1` (centres unmarked) [Example 356, N-(3-chloro-4-fluorophenyl)-4,5-difluoro-N′-hydroxy-2-(((4-methylmorpholin-2-yl)methyl)amino)-1H-benzo[d]imidazole-7-carboximidamide], the EC50 rises from 2020 nM to 3260 nM (1.6-fold).

First: CN1CCOC(CNc2nc3nccc(/C(=N/O)Nc4ccc(F)c(Cl)c4)c3[nH]2)C1 (centres unmarked) [Example 357, N-(3-chloro-4-fluorophenyl)-N′-hydroxy-2-(((4-methylmorpholin-2-yl)methyl)amino)-1H-imidazo[4,5-b]pyridine-7-carboximidamide]
Second: Cn1nccc1CNc1nc2nccc(/C(=N/O)Nc3ccc(F)c(Cl)c3)c2[nH]1 [Example 358, N-(3-chloro-4-fluorophenyl)-N′-hydroxy-2-(((1-methyl-1H-pyrazol-5-yl)methyl)amino)-1H-imidazo[4,5-b]pyridine-7-carboximidamide]
The EC50 of the first is 2.7-fold lower: 3240 nM for the first, 8790 nM for the second. The first is the more potent here.

First: O/N=C(\Nc1ccc(F)c(Cl)c1)c1ccc(F)c2nc(NCCN3CCOCC3)[nH]c12 [Example 368, N-(3-chloro-4-fluorophenyl)-4-fluoro-N′-hydroxy-2-((2-morpholinoethyl)amino)-1H-benzo[d]imidazole-7-carboximidamide]
Second: O/N=C(\Nc1ccc(F)c(Cl)c1)c1ccc(F)c2nc(NCCN3CCCC3)[nH]c12 [Example 376, N-(3-chloro-4-fluorophenyl)-4-fluoro-N′-hydroxy-2-((2-(pyrrolidin-1-yl)ethyl)amino)-1H-benzo[d]imidazole-7-carboximidamide]
The EC50 of the first is 3.2-fold higher: 4000 nM for the first, 1260 nM for the second.

First: CN(C(=NO)c1ccnc2nc[nH]c12)c1ccc(F)c(Cl)c1 [Example 369, N-(3-chloro-4-fluorophenyl)-N′-hydroxy-N-methyl-1H-imidazo[4,5-b]pyridine-7-carboximidamide]
Second: Nc1nc2cc(F)cc(/C(=N/O)Nc3ccc(F)c(Cl)c3)c2[nH]1 [Example 370, 2-amino-N-(3-chloro-4-fluorophenyl)-5-fluoro-N′-hydroxy-1H-benzo[d]imidazole-7-carboximidamide]
The EC50 of the first is higher: greater than 10000 nM for the first, 1080 nM for the second. The second is the more potent here.

`Nc1nc2cc(F)cc(/C(=N/O)Nc3cccc(Cl)c3)c2[nH]1` [Example 371, 2-amino-N-(3-chlorophenyl)-5-fluoro-N′-hydroxy-1H-benzo[d]imidazole-7-carboximidamide] and `Nc1nc2cc(F)cc(/C(=N/O)Nc3cccc(Br)c3)c2[nH]1` [Example 372, 2-amino-N-(3-bromophenyl)-5-fluoro-N′-hydroxy-1H-benzo[d]imidazole-7-carboximidamide] are within 1.5-fold of each other in EC50: 644 nM for the first, 483 nM for the second.

First: Nc1nc2cc(F)cc(/C(=N/O)Nc3ccc(F)c(Br)c3)c2[nH]1 [Example 373, 2-amino-N-(3-bromo-4-fluorophenyl)-5-fluoro-N′-hydroxy-1H-benzo[d]imidazole-7-carboximidamide]
Second: CN(C)CCNc1nc2cc(F)cc(/C(=N/O)Nc3ccc(F)c(Cl)c3)c2[nH]1 [Example 379, N-(3-chloro-4-fluorophenyl)-2-((2-(dimethylamino)ethyl)amino)-5-fluoro-N′-hydroxy-1H-benzo[d]imidazole-7-carboximidamide]
The EC50 of the first is 1.7-fold higher: 736 nM for the first, 435 nM for the second. The second is the more potent here.

Going from `O=S1(=O)CCN(CCNc2nc3c(F)c(F)cc(/C(=N/O)Nc4ccc(F)c(Cl)c4)c3[nH]2)CC1` [Example 374, N-(3-chloro-4-fluorophenyl)-2-((2-(1,1-dioxidothiomorpholino)ethyl)amino)-4,5-difluoro-N′-hydroxy-1H-benzo[d]imidazole-7-carboximidamide] to `CC(CNc1nc2c(F)c(F)cc(/C(=N/O)Nc3ccc(F)c(Cl)c3)c2[nH]1)N1CCOCC1` (centres unmarked) [Example 377, N-(3-chloro-4-fluorophenyl)-4,5-difluoro-N′-hydroxy-2-((2-morpholinopropyl)amino)-1H-benzo[d]imidazole-7-carboximidamide], the EC50 falls from 2400 nM to 838 nM (2.9-fold).

First: CCN(CC)CCNc1nc2c(F)ccc(/C(=N/O)Nc3ccc(F)c(Cl)c3)c2[nH]1 [Example 375, N-(3-chloro-4-fluorophenyl)-2-((2-(diethylamino)ethyl)amino)-4-fluoro-N′-hydroxy-1H-benzo[d]imidazole-7-carboximidamide]
Second: CN(C)CCNc1nc2c(F)ccc(/C(=N/O)Nc3ccc(F)c(Br)c3)c2[nH]1 [Example 382, N-(3-bromo-4-fluorophenyl)-2-((2-(dimethylamino)ethyl)amino)-4-fluoro-N′-hydroxy-1H-benzo[d]imidazole-7-carboximidamide]
The EC50 of the first is 2-fold higher: 1190 nM for the first, 608 nM for the second.

Compared with `O/N=C(\Nc1ccc(F)c(Cl)c1)c1cc(F)cc2nc(NCCN3CCCC3)[nH]c12` [Example 380, N-(3-chloro-4-fluorophenyl)-5-fluoro-N′-hydroxy-2-((2-(pyrrolidin-1-yl)ethyl)amino)-1H-benzo[d]imidazole-7-carboximidamide], `CN(C)CCNc1nc2c(F)ccc(/C(=N/O)Nc3cccc(Br)c3)c2[nH]1` [Example 383, N-(3-bromophenyl)-2-((2-(dimethylamino)ethyl)amino)-4-fluoro-N′-hydroxy-1H-benzo[d]imidazole-7-carboximidamide] is 4.4-fold lower in EC50: 1390 nM for the first, 319 nM for the second. The second is the more potent here.

Reference: US9951065B2 (Gilead Sciences, Inc., priority 2015, dated 2018)
